What was measured:
[1] = test system: anammox activity of "Ca. Kuenenia stuttgartiensis "; conditions: 20 mg L^-1 chloramphenicol, sequencing batch reactor, after 4 days; cited from earlier work
[2] = test system: anammox activity of "Ca. Kuenenia stuttgartiensis "; conditions: 1 g L^-1 chloramphenicol; cited from earlier work
[3] = test system: anammox activity of reactor effluent; assay: Incubations of reactor effluent with effectors; anammox activity from headspace gas production rate; assay type: cell-based, "Ca. Kuenenia stuttgartiensis"; conditions: for IC50: 30°C
Experimental: 60 mL nitrogen-flushed glass bottles were anoxically filled with 50 mL reactor effluent and closed with butyl rubber septa and aluminum crimp caps. Effectors were anoxically added with sterile syringes through the septa or directly added to the bottles as powder. Except for the experiment in which nitrite was varied, 3 mM nitrite was added at time 0. Each bottle was directly connected to a MPX5100DP pressure sensor via a 0.41 mm Luer Lock needle. All sensors were electrically connected to a LabJack converter for data reading and storage. Pressure sensors were read every 3 seconds. In total, twelve such bottles were set up for each experiment, allowing the simultaneous testing of five different effector concentrations in duplicate plus two bottles as negative controls without effector.
Experiments were incubated for 24 hours after which 3 mL air was injected into each bottle for calibration of the pressure sensor readings. Gas production rates were calculated as mL per day across 1,000 consecutive data points (3,000 seconds). […] The same time frame was chosen for all twelve bottles in one experiment to calculate anammox activities from the slopes.
For that the reactor effluent was incubated in closed bottles and monitored the pressure build-up in the headspace over time. […] Legend: the number before the dash indicates the chloramphenicol concentration in mg L^-1, the number behind the dash indicates the number of the replicate. (A) Gas production; (B) Gas production rate calculated in a window of 1,000 consecutive data points (equivalent to 3,000 seconds).

[4] = test system: "Ca. Kuenenia stuttgartiensis"; conditions: previous reports; cited from earlier work
anammox activity = assay: Semi-CSTR reactor operation under critical conditions (pulse addition, reactor collapse); assay type: cell-based, "Ca. Kuenenia stuttgartiensis"; conditions: pulse of 0.2 mM Na2S added to the reactor
Experimental: The reactor effluent was collected in anoxic 2-liter bottles and stored in the dark at 4°C to be used later for inhibitor tests (see below) or as inoculum when the reactor collapsed. During one-year operation under experimental conditions, the reactor intentionally collapsed three times under three different critical conditions: 1) after the reactor was incubated for 24 h at 38.6°C without feeding nitrite, 2) after a pulse of 0.2 mM Na2S was added, and 3) after a pulse of 65 µM FeCl2 was added. […] After such reactor collapses, the reactor could be reproducibly regenerated with the stored eluent bottles. The activity in the effluent bottles was recovered, as judged from pressure production rates, within only 2 days when a bottle was warmed up to room temperature, spiked with 3 mM nitrite and incubated at 30°C. Effluent could be stored at 4°C for at least three months without startup delay.

[5] = reactor effluent, gas production rate normalized to controls without effector

Molecule: O=C(N[C@H](CO)[C@H](O)c1ccc([N+](=O)[O-])cc1)C(Cl)Cl [chloramphenicol]
- drop in reactor efficiency [1]: 25%
- drop in specific anammox activity [1]: 75%
- inhibition [2]: no apparent inhibition
- inhibition at 30 µg/mL ([3]; chloramphenicol 30 mg L^-1): 57%
- IC50 ([3]; reactor effluent, 3 mM nitrite): 19 mg/L

Molecule: O=N[O-].[Na+] [nitrite, NaNO2]
- inhibition ([3]; nitrite at 6 mM): 24%
- inhibition ([3]; nitrite at 6 mM, as worded in the discussion): severe inhibition
- IC50 [3, 5]: 9.6 mM
- tolerant to nitrite [4]: 13 to 25 mM

Molecule: [Na+].[Na+].[S-2] [sulfide, Na2S]
- IC50 ([3]; reactor effluent, 3 mM nitrite): 0.005 mM
- inhibition of anammox activity ([3]; sulfide at 5 µM): severely inhibited
- effect on the reactor (anammox activity): complete loss of the anammox activity

Molecule: CN(C)c1ccc2nc3ccc(=[N+](C)C)cc-3sc2c1 [methylene blue]
- inhibition ([3]; 100 µg L^-1 methylene blue): 86%
- inhibition of anammox activity ([3]; methylene blue 10 µg L^-1): no apparent inhibition
- IC50 ([3]; reactor effluent, 3 mM nitrite): 0.053 mg/L

Molecule: [Cl-].[Na+] [NaCl]
- inhibition ([3]; 270 mM salt): 75%
- salt concentrations that start to inhibit anammox activity ([3]; reactor effluent): 120 to 270 mM
- inhibition ([3]; salt concentrations up to 120 mM): No apparent inhibition

Molecule: phosphate
- anammox activity higher than in the controls at 1.5 mM ([3]; 6.5 mM phosphate): 11%
- anammox activity preserved ([3]; highest tested concentration of 51.5 mM phosphate): 65%
- increase of anammox activity ([3]; phosphate concentration increased from 1.5 mM to 3.5 mM): 16%
- IC50 [3, 5]: > 51.5 mM

Reference: EP3502234B1, “ANAEROBIC AMMONIUM OXIDATION WITH PLANKTONIC CELLS IN A CONTINUOUS OR SEMI-CONTINUOUS STIRRED-TANK REACTOR” (priority 2017, dated 2019)
